# Measurements: paper PMC9358669, “Native metabolomics identifies the rivulariapeptolide family of protease inhibitors” (Nature Communications, 2022)
# Entries after “also recorded” stand apart in the source; their conditions may differ. Starred links: 1 amine or outer side, 2 acyl side, 3 side chain; linkers in the order of their positions; H or OH if unused. Positions of bridges follow the written chain, without caps; N, C: chain ends. Non-standard residues stand in square brackets, D forms with d. Residues, ends and D or L forms follow the SMILES beside them. *: point of attachment. Ahp(3S,6R)alloIle = CC[C@@H](C)[C@@H](C(=O)[*:2])N1C(=O)[C@@H](N[*:1])CC[C@H]1O; Leu(3R-OH,Nα-propionyl) = CCC(=O)N[C@H](C(=O)*)[C@H](O)C(C)C; Propanoyl(2R-OH,3-(4-HOPh)) = O=C([C@H](O)Cc1ccc(O)cc1)*; X1 = CC(C)[C@@H](O[*:3])[C@H](N[*:1])C(=O)[*:2]; NMeF = CN[C@@H](Cc1ccccc1)C(=O)O; NMeT = CN[C@H](C(=O)O)[C@@H](C)O; dPhLac = O=C(O)[C@H](O)Cc1ccccc1; NMeA = CN[C@@H](C)C(=O)O; NMeDha = C=C(NC)C(=O)O
# Tested on: Chymotrypsin
# Experiment: not given
# Parameters: method as in earlier work
# Conditions: Supplementary Table 5, Top 50 chymotrypsin inhibitors among Ahp-cyclodepsipeptides; cited from earlier work
row,Compound,IC50
1,Micropeptin T-20,2.5 nM
2,Cyanopeptolin CP992,240 nM
3,Micropeptin MM850,1700 nM
4,CCCCCC(=O)NC(CC(=O)O)C(=O)NC1C(=O)NC(Cc2ccc(O)cc2)C(=O)NC2CCC(O)N(C2=O)C(Cc2ccccc2)C(=O)N(C)C(CCc2ccc(O)cc2)C(=O)NC(C(C)C)C(=O)OC1C (stereo not drawn) [Cyanopeptolin CP1027],260 nM
5,Dinghupepeptin B,1100 nM
6,CC(C)C[C@@H]1NC(=O)[C@@H](NC(=O)[C@H](CCC(N)=O)NC(=O)C(C)C)[C@@H](C)OC(=O)[C@H](C(C)C)NC(=O)C(Cc2ccc(O)cc2)N(C)C(=O)[C@H](Cc2ccccc2)N2C(=O)[C@H](CC[C@H]2O)NC1=O (stereo partly drawn) [Crocapeptin A2],100 nM
7,Micropeptin KB991,870 nM
8,CCC(C)C(=O)N[C@@H](CCC(N)=O)C(=O)N[C@@H]1C(=O)N[C@@H](CC(C)C)C(=O)N[C@H]2CC[C@@H](O)N(C2=O)[C@@H](Cc2ccccc2)C(=O)N(C)[C@@H](Cc2ccc(O)cc2)C(=O)N[C@@H](C(C)C)C(=O)O[C@@H]1C (stereo partly drawn) [Crocapeptin A3],100 nM
9,"CC[C@@H](C)[C@H]1C(=O)N(C)[C@@H](Cc2ccccc2)C(=O)N[C@@H](C(C)C)C(=O)O[C@H](C)[C@H](NC(=O)[C@H](CCC(N)=O)NC(=O)[C@H](O)Cc2ccc(O)cc2)C(=O)N[C@@H](Cc2ccc(O)cc2)C(=O)N[C@H]2CC[C@@H](O)N1C2=O [Micropeptin KT1042] ({Propanoyl(2R-OH,3-(4-HOPh))}-QTY[Ahp(3S,6R)alloIle][NMeF]V; ester 2-C)",260 nM
10,Micropeptin 88-A,400 nM
11,CCCC(=O)N[C@@H](CCC(N)=O)C(=O)N[C@@H]1C(=O)N[C@@H](CCCNC(N)=O)C(=O)N[C@H]2CC[C@@H](O)N(C2=O)[C@@H]([C@@H](C)CC)C(=O)N(C)[C@@H](Cc2ccc(OC)c(Br)c2)C(=O)N[C@@H](C(C)C)C(=O)O[C@@H]1C [Symplocamide A],380 nM
12,CCCCCCCC(=O)N[C@@H](CCC(=O)O)C(=O)N[C@@H]1C(=O)N[C@@H](Cc2ccc(O)cc2)C(=O)N[C@H]2CC[C@@H](O)N(C2=O)[C@@H](Cc2ccccc2)C(=O)N(C)[C@@H](Cc2ccc(O)cc2)C(=O)N[C@@H](C(C)C)C(=O)O[C@@H]1C [Micropeptin D],1200 nM
13,CC(C)C[C@@H]1NC(=O)[C@@H](NC(=O)[C@@H](NC(=O)[C@H](C)NC(=O)[C@H](CCCc2ccc(O)cc2)NC(=O)[C@H](O)CO)C(C)C)[C@@H](C)OC(=O)[C@H](C(C)C)NC(=O)[C@H](Cc2ccc(O)c(Br)c2)N(C)C(=O)[C@@H]2[C@H](C)O[C@@H]3CC[C@H](NC1=O)C(=O)N23 [Largamide D oxazolidine],928 nM
14,Tutuilamide C,542 nM
15,Cyanopeptolin CP978,260 nM
16,CC[C@H](C)[C@@H]1NC(=O)[C@H](Cc2ccc(OC)cc2)N(C)C(=O)[C@H]([C@@H](C)O)N2C(=O)[C@H](CC[C@H]2O)NC(=O)[C@H](CC(C)C)NC(=O)[C@@H](NC(=O)[C@H](CCC(N)=O)NC(=O)[C@H](CCc2ccc(O)cc2)NC(=O)[C@@H](O)CO)[C@@H](C)OC1=O [Planktopeptin BL1125],800 nM
17,C/C=C1\NC(=O)[C@@H](NC(=O)[C@@H](NC(=O)[C@H](C)NC(=O)C/C(C)=C/Cl)C(C)C)[C@@H](C)OC(=O)[C@H](C(C)C)NC(=O)[C@H](Cc2ccc(O)cc2)N(C)C(=O)[C@H](Cc2ccccc2)N2C(=O)[C@H](CC[C@H]2O)NC1=O [Tutuilamide B],577 nM
18,CCC(=O)N[C@@H](CCC(N)=O)C(=O)N[C@@H]1C(=O)N[C@@H](CC(C)C)C(=O)N[C@H]2CC[C@@H](O)N(C2=O)[C@@H](Cc2ccccc2)C(=O)N(C)[C@@H](Cc2ccc(O)cc2)C(=O)N[C@@H](C(C)C)C(=O)O[C@@H]1C [Crocapeptin A1],100 nM
19,CC[C@H](C)[C@@H]1NC(=O)[C@H](Cc2ccccc2)N(C)C(=O)[C@H](C(C)C)N2C(=O)[C@H](CC[C@H]2O)NC(=O)[C@H](CC2C=CC(O)CC2)NC(=O)[C@@H](NC(=O)[C@@H](CCC(N)=O)NC(=O)C(O)Cc2ccc(O)cc2)[C@H](C)OC1=O (stereo partly drawn) [Micropeptin KB1046],220 nM
20,CC[C@H](C)[C@@H]1NC(=O)[C@H](Cc2ccc(O)cc2)N(C)C(=O)[C@H]([C@@H](C)CC)N2C(=O)C(CCC2O)NC(=O)[C@H](CC(C)C)NC(=O)[C@@H]2C(OC1=O)C(C)CN2C(=O)[C@H](CCC(N)=O)NC(C)=O (stereo partly drawn) [Nostopeptin B],1600 nM
21,CCCCCC(=O)N[C@@H](CCC(=O)O)C(=O)N[C@@H]1C(=O)N[C@@H](Cc2ccc(O)cc2)C(=O)N[C@H]2CC[C@@H](O)N(C2=O)[C@@H](Cc2ccccc2)C(=O)N(C)[C@@H](Cc2ccc(O)cc2)C(=O)N[C@@H](C(C)C)C(=O)O[C@@H]1C [Micropeptin C],1100 nM
22,CCCCCC(=O)NCC(=O)N[C@H](C(=O)N[C@@H]1C(=O)N[C@@H](CCC(N)=O)C(=O)N[C@H]2CC[C@@H](O)N(C2=O)[C@@H](Cc2ccccc2)C(=O)N(C)[C@@H](Cc2c[nH]c3ccccc23)C(=O)N[C@@H](C(C)C)C(=O)O[C@@H]1C)[C@@H](C)O [Micropeptin 103],1000 nM
23,Micropeptin 88-Y,1300 nM
24,Cyanopeptolin CP1018,240 nM

# Same assay, conditions: cited from earlier work
row,Compound,IC50
1,Microcystin 996,640 nM

# Target: T1, Chymotrypsin (Bos taurus, UniProt P00766)
# T1 construct: purchased Sigma-Aldrich
# Experiment: Native metabolomics / native MS detection of chymotrypsin-ligand complexes
# Format: binding
# Conditions: control compounds pooled at 10 µg/mL
# Description: For native metabolomics experiments, the same chromatographic parameters were used and in addition, 220 µL/min (setup A) or 150 µL/min (setup B) ammonium acetate buffer was infused post-column through a make-up pump and a PEEKT-splitter and enzyme solution was infused with 2 µL/min flow rate via the integrated syringe pump. ESI settings were set to 40 arb. units sheath gas flow, the auxiliary gas flow was set to 10 arb. units and sweep gas flow was set to 0 arb. units. The auxiliary gas temperature was set to 150 °C. The spray voltage was set to 3 kV and the inlet capillary was heated to 253 °C. S-lens level was set to 30 V applied. MS scan range was set to 2000-4000 m/z (setup A) and 2500–4000 m/z (setup B) with a resolution Rm/z 200 140,000 (setup A) and 120,000 (setup B) with 2 microscans. MS acquisition was performed in all-ion fragmentation (AIF) mode with Rm/z 200 with 20% HCD collision energy and an isolation window of 2000 –4000 m/z (setup A) or 2500–4000 m/z (setup B).
# For native LC-MS data, multiple charged spectra were deconvoluted using the Xtract algorithm in Qualbrowser, part of the Xcalibur software (Thermo Scientific) and also using FLASHDeconv (version 2.0Beta) {Jeong, K. et al. FLASHDeconv: Ultrafast, High-Quality Feature Deconvolution for Top- Down Proteomics. Cell Syst 10, 213-218 e216 (2020).}. For Xtract algorithm, both deconvoluted native LC-MS and metabolomics LC-MS/MS.raw files were converted to the centroid.mzML file format using MSconvert of the proteowizard software package. For FLASHDeconv, the raw files were converted into centroid m/zML again using MSconvert software first. Then the converted mzML files were deconvolved to generate deconvolved.mzML format files. Feature finding of both file types was performed using a modified version of MZmine2.37 (corr.17.7). Feature tables from both intact protein mass and metabolomics data were matched by their retention time (RT) and an m/z offset corresponding to the mass of chymotrypsin (25234 Da) with an RT tolerance of 0.2 min and a mass tolerance of 4 Da.
# To optimize ESI setting as well as the influence of NH4Acetate concentration and pH, we used molassamide as a test compound. For optimization of ESI settings, we performed flow injections without a column and ramped ESI aux gas temperature, in-source CID energy, S-lense RF voltage. Optimization of pH values over the entire LC gradient and peak intensities were both assessed using three different make-up buffers. Make-up buffer 1 was water, make-up buffer 2 was 10 mM NH4Acetate buffer, and make-up buffer 3 was 10 mM NH4Acetate buffer + 0.2% ammonium hydroxide, v/v. Effects of NH4Acetate concentration was assessed with an online mixed make-up flow (using Experimental Setup B) with the low-pressure gradient pump. As solvent A we used LC-MS grade water and 100 mM NH4Acetate as solvent B. Molassamide was prepared as 100 µM solutions from a 10 mM stock solution in DMSO by preparing a 1:100 dilution into solvent mixture 1 (water + 10% acetonitrile + 0.1% formic acid). Samples were analyzed as described in micro-flow LC-MS/MS data acquisition (setup A); 2 µL of each solution were injected into the mass spectrometer, while chymotrypsin (Sigma), dissolved in water to a final concentration of 2 mg/mL, was injected through the syringe pump at a flow rate of 2 µL/min. pH values were assessed by disconnecting the flow to the source and collecting ~30 µL of solvent every minute, then testing this value on pH paper.
# Molassamide was prepared as 100 µM solutions from a 10 mM stock solution in DMSO by preparing a 1:100 dilution into solvent mixture 1 (water + 10% acetonitrile + 0.1% formic acid). From this 100 µM solution, dilutions were prepared at 10, 1, and 0.1 µM into solvent mixture 1. 2 µL of each solution were injected into the mass spectrometer. […]
row,Compound,binding to chymotrypsin under native MS conditions
1,Oc1cc(O)cc(O)c1 [phloroglucinol],did not observe the binding; also recorded: no binding
2,O=C1c2ccc(O)c(O)c2C(=O)c2c(O)ccc(O)c21 [quinalizarin],did not observe the binding; also recorded: no binding
3,CC[C@H](C)[C@@H](C(=O)O[C@@H](CC(C)C)C(=O)N[C@@H](CC(C)C)C(=O)N[C@@H](C)/C=C/C(=O)N1C(=O)C=C(OC)[C@@H]1C)N(C)C [gallinamide A],did not observe the binding; also recorded: no binding
4,"C=C1C(=O)N[C@@H](C)C(=O)N(C)[C@@H](C)C(=O)N[C@@H]([C@H](OC(=O)[C@@H](NC(=O)CC)[C@H](O)C(C)C)C(C)C)C(=O)N(C)[C@@H]([C@@H](C)OC)C(=O)O[C@H](C(C)C)[C@H](NC(C)=O)C(=O)O[C@H](Cc2ccccc2)C(=O)N1C [FR900359] (Ac-[X1][dPhLac][NMeDha]A[NMeA][X1](Leu(3R-OH,Nα-propionyl))[NMeT](Me); ester 1-C)",did not observe the binding; also recorded: no binding
5,O=c1c(-c2ccc(O)cc2)coc2cc(O)cc(O)c12 [genistein],did not observe the binding; also recorded: no binding
